Measurements published in the NIST ThermoML archive (doi:10.1016/j.jct.2016.10.034).

Assay: xn = mol fraction of the nth substance listed
Details: 100 kPa, Liquid; for viscosity: Falling or rolling sphere viscometry; for mass density: Vibrating tube method

CC[N+]1(C)CCCC1.O=C([O-])CO [1-ethyl-1-methylpyrrolidinium glycolate] + O
Details	mass density [kg/m3]	viscosity [mPa·s]
298.15 K, x1 = 0.0541	1057.7	–
298.15 K, x1 = 0.1293	1100.6	11.8
298.15 K, x1 = 0.2024	1118.3	25.2
298.15 K, x1 = 0.2905	1127.2	46.2
298.15 K, x1 = 0.3464	1130	61.1
298.15 K, x1 = 0.4258	1132.3	84
298.15 K, x1 = 0.5357	1133.9	119
298.15 K, x1 = 0.6086	1134.3	145
298.15 K, x1 = 0.729	1134.7	195
298.15 K, x1 = 0.825	1134.5	241
298.15 K, x1 = 0.8839	1134.3	271
303.15 K, x1 = 0.0541	1055.1	–
303.15 K, x1 = 0.1293	1097.2	9.63
303.15 K, x1 = 0.2024	1114.7	19.9
303.15 K, x1 = 0.2905	1123.6	37.2
303.15 K, x1 = 0.3464	1126.5	48.2
303.15 K, x1 = 0.4258	1128.8	65
303.15 K, x1 = 0.5357	1130.4	90.6
303.15 K, x1 = 0.6086	1130.9	110
303.15 K, x1 = 0.729	1131.3	146
303.15 K, x1 = 0.825	1131.1	179
303.15 K, x1 = 0.8839	1130.9	200
308.15 K, x1 = 0.0541	1052.3	–
308.15 K, x1 = 0.1293	1093.7	8
308.15 K, x1 = 0.2024	1111.2	16.5
308.15 K, x1 = 0.2905	1120.1	30
308.15 K, x1 = 0.3464	1123	38.3
308.15 K, x1 = 0.4258	1125.4	51.4
308.15 K, x1 = 0.5357	1127	70.8
308.15 K, x1 = 0.6086	1127.5	85.4
308.15 K, x1 = 0.729	1127.9	112
308.15 K, x1 = 0.825	1127.7	137
308.15 K, x1 = 0.8839	1127.6	152
313.15 K, x1 = 0.0541	1049.5	–
313.15 K, x1 = 0.1293	1090.3	6.75
313.15 K, x1 = 0.2024	1107.6	13.5
313.15 K, x1 = 0.2905	1116.6	23.5
313.15 K, x1 = 0.3464	1119.5	30.5
313.15 K, x1 = 0.4258	1121.9	41.3
313.15 K, x1 = 0.5357	1123.6	56.4
313.15 K, x1 = 0.6086	1124.1	67.6
313.15 K, x1 = 0.729	1124.6	87.7
313.15 K, x1 = 0.825	1124.4	106
313.15 K, x1 = 0.8839	1124.3	119
318.15 K, x1 = 0.0541	1046.6	–
318.15 K, x1 = 0.1293	1086.8	5.69
318.15 K, x1 = 0.2024	1104	11.6
318.15 K, x1 = 0.2905	1113.1	20
318.15 K, x1 = 0.3464	1116	25.4
318.15 K, x1 = 0.4258	1118.5	33.8
318.15 K, x1 = 0.5357	1120.3	45.7
318.15 K, x1 = 0.6086	1120.8	54.2
318.15 K, x1 = 0.729	1121.3	70
318.15 K, x1 = 0.825	1121.1	83.6
318.15 K, x1 = 0.8839	1121	92.8
323.15 K, x1 = 0.0541	1043.7	–
323.15 K, x1 = 0.1293	1083.3	4.85
323.15 K, x1 = 0.2024	1100.4	9.82
323.15 K, x1 = 0.2905	1109.6	16.4
323.15 K, x1 = 0.3464	1112.6	20.9
323.15 K, x1 = 0.4258	1115.2	27.7
323.15 K, x1 = 0.5357	1116.9	37.5
323.15 K, x1 = 0.6086	1117.5	44.5
323.15 K, x1 = 0.729	1118	56.6
323.15 K, x1 = 0.825	1117.9	67
323.15 K, x1 = 0.8839	1117.7	74.6
328.15 K, x1 = 0.0541	1040.6	–
328.15 K, x1 = 0.1293	1079.8	4.34
328.15 K, x1 = 0.2024	1096.8	8.55
328.15 K, x1 = 0.2905	1106.1	13.9
328.15 K, x1 = 0.3464	1109.2	17.8
328.15 K, x1 = 0.4258	1111.8	23.3
328.15 K, x1 = 0.5357	1113.6	31.4
328.15 K, x1 = 0.6086	1114.2	37.2
328.15 K, x1 = 0.729	1114.8	46.8
328.15 K, x1 = 0.825	1114.6	55.7
328.15 K, x1 = 0.8839	1114.5	61.9
333.15 K, x1 = 0.0541	1037.5	–
333.15 K, x1 = 0.1293	1076.2	4.12
333.15 K, x1 = 0.2024	1093.3	7.54
333.15 K, x1 = 0.2905	1102.6	12.5
333.15 K, x1 = 0.3464	1105.7	15.5
333.15 K, x1 = 0.4258	1108.5	20
333.15 K, x1 = 0.5357	1110.4	26.5
333.15 K, x1 = 0.6086	1111	31.1
333.15 K, x1 = 0.729	1111.5	38.8
333.15 K, x1 = 0.825	1111.4	45.5
333.15 K, x1 = 0.8839	1111.3	49.9
338.15 K, x1 = 0.0541	1034.3	–
338.15 K, x1 = 0.1293	1072.7	3.87
338.15 K, x1 = 0.2024	1089.7	6.81
338.15 K, x1 = 0.2905	1099.2	10.6
338.15 K, x1 = 0.3464	1102.4	13.2
338.15 K, x1 = 0.4258	1105.1	16.8
338.15 K, x1 = 0.5357	1107.1	22.4
338.15 K, x1 = 0.6086	1107.7	26.1
338.15 K, x1 = 0.729	1108.3	32.6
338.15 K, x1 = 0.825	1108.3	38.1
338.15 K, x1 = 0.8839	1108.2	41.6
343.15 K, x1 = 0.0541	1031.1	–
343.15 K, x1 = 0.1293	1069.1	3.58
343.15 K, x1 = 0.2024	1086.1	5.96
343.15 K, x1 = 0.2905	1095.7	9.03
343.15 K, x1 = 0.3464	1099	11.2
343.15 K, x1 = 0.4258	1101.8	14.5
343.15 K, x1 = 0.5357	1103.9	19.2
343.15 K, x1 = 0.6086	1104.6	22.4
343.15 K, x1 = 0.729	1105.2	27.9
343.15 K, x1 = 0.825	1105.1	32.4
343.15 K, x1 = 0.8839	1105.1	35.3
348.15 K, x1 = 0.0541	1027.6	–
348.15 K, x1 = 0.1293	1065.5	3.55
348.15 K, x1 = 0.2024	1082.6	5.64
348.15 K, x1 = 0.2905	1092.9	7.83
348.15 K, x1 = 0.3464	1095.6	9.71
348.15 K, x1 = 0.4258	1098.6	12.5
348.15 K, x1 = 0.5357	1100.7	16.6
348.15 K, x1 = 0.6086	1101.4	19.3
348.15 K, x1 = 0.729	1102.1	24
348.15 K, x1 = 0.825	1102	27.7
348.15 K, x1 = 0.8839	1102	30.1
